Measured values reported in paper PMC6270836, “Carapanolides J–L from the Seeds of Carapa guianensis (Andiroba) and Their Effects on LPS-Activated NO Production” (Molecules, 2014).
Several values for one entry are separate records, joined by “and”; a condition that tells them apart may be missing. Equal values may be shown once. Entries after “also recorded” stand apart in the source; their conditions may differ. Read-outs that look alike come from different tables or passages of the source.

Experiments:
RAW264.7 cells = assay: RAW264.7 cell proliferation / cytotoxicity by MTT assay; conditions: 3–100 μM, MTT assay
Experimental: (§1) Physiological nitric oxide (NO) is involved in blood pressure regulation and blood flow distribution, whereas its overexpression may induce tissue injury, multiple organ dysfunction, and death, as well as systemic inflammatory responses in sepsis, such as hypotension, cardiodepression, and vascular hyporeactivity. In the present study, four limonoids and L-NMMA, an inducible nitric oxide synthase (iNOS) inhibitor, were evaluated for their inhibitory effects on NO production in LPS-stimulated RAW264.7 cells (Table 3). To determine safe concentrations, the cytotoxicities of these limonoids against RAW 264.7 were assessed by the MTT assay.
(§2) RAW264.7 cell proliferation was examined according to a method reported previously with some modifications. Briefly, RAW264.7 cells (5 × 10^4 cells in 100 μL) were seeded onto 96-well microplates, and incubated for 24 h. D-MEM (100 μL) containing test samples (final concentration of 100, 30, 10, or 3 μM) dissolved in DMSO (final concentration 0.2%) was added. […] After 3 h of incubation, 20% sodium dodecyl sulfate (SDS) in 0.1 M HCl was added to dissolve the formazan produced by the cells. The absorbance of each well was read at 570 nm using a microplate reader. The optical density of vehicle control cells was assumed to be 100%.

[1] = as above; conditions: mouse
Experimental: as §1, §2

[2] = tested on: NO production in LPS-stimulated RAW264.7 cells; assay: Inhibitory assay of NO production in LPS-stimulated RAW264.7 cells; type: cell-based, mouse; conditions: for Produced NO (%): LPS 5 μg/mL, DMSO control = 100%, mean ± S.E., n=3; for IC50: Mus musculus, read-out: IC50 (μM), produced NO
Experimental: as §1
An inhibitory assay of nitric oxide production was performed according to a method reported previously with slight modifications. Briefly, RAW264.7 cells (5 × 10^4 cells in 100 μL) were seeded onto 96-well microplates, and incubated for 24h. D-MEM (100 μL) containing test samples (final concentration of 100, 30, 10, or 3 μM) dissolved in DMSO (final concentration 0.2%) and LPS (final concentration of 5 μg/mL) were added. […] After being incubated for 30 min, the absorbance of each well was read at 570 nm using a microplate reader. The optical density of vehicle control cells was assumed to be 100%.

[3] = LPS-stimulated RAW264.7 cells, 24 h

SMILES	Cytotoxicity against RAW 264.7 (in words) (RAW264.7 cells)	IC50 at 24 h [1] [µM]	viability at 24 h, 3 µM [1] [%]	viability at 24 h, 10 µM [1] [%]	viability at 24 h, 30 µM [1] [%]	viability at 24 h, 100 µM [1] [%]	Produced NO (%) ([2]; 3 μM, 24 h)	Produced NO (%) ([2]; 10 μM, 24 h)	Produced NO (%) ([2]; 30 μM, 24 h)	Produced NO (%) ([2]; 100 μM, 24 h)	IC50 [2, 3] [µM]	IC50 at 24 h ([1]; RAW264.7 cells) [µM]	viability at 24 h, 3 µM ([1]; RAW264.7 cells) [%]	viability at 24 h, 10 µM ([1]; RAW264.7 cells) [%]	viability at 24 h, 30 µM ([1]; RAW264.7 cells) [%]	viability at 24 h, 100 µM ([1]; RAW264.7 cells) [%]	IC50 ([2]; RAW264.7, 24 h) [µM]
CC(=O)O[C@@H]1C[C@H]2C(C)(C)C(=O)C=C[C@]2(C)[C@H]2CC[C@@]3(C)[C@H](c4ccoc4)C(=O)[C@H]4O[C@]43[C@@]21C [Compound 4, epoxyazadiradione]	moderate cytotoxicities	21.3	93.6 ± 1.4	99.7 ± 0.8	6.8 ± 0.3	3.3 ± 0.3	74.0% and 74.0 ± 5.0%	30.0% and 30.0 ± 2.3%	7.5 ± 1.0%	3.9 ± 1.8%	5.9						
C/C=C(\C)C(=O)OC1C2(C)CC3(O)C(C)(C4CCC5(C)C(=C4C(OC(=O)C(C)CC)C13O)C(OC(C)=O)C(=O)OC5c1ccoc1)C2CC(=O)OC (centres unmarked) [Compound 2, carapanolide K]							78.6 ± 1.9%	58.3 ± 2.8%	25.8 ± 7.0%	7.1 ± 1.2%	12	15.2	81.4 ± 0.8	65.6 ± 0.2	33.6 ± 6.3	0.4 ± 0.4	
CCC(=O)OC1C2(O)C(OC(C)=O)C3(C)CC24OC2(C)OC15C1CC(=O)OC(c6ccoc6)C1(C)CCC5(O2)C41COC(=O)CC31 (centres unmarked) [Compound 3, carapanolide L]	non-toxicities						95.6 ± 2.5%	95.4 ± 1.2%	95.4 ± 2.9%	78.4 ± 2.3%		> 100	97.6 ± 0.6	97.3 ± 1.3	100.5 ± 0.4	94.4 ± 1	> 100
CC1(C)C(=O)C=CC2(C)C1CC(=O)C1(C)C2C(O)CC2(C)C(c3ccoc3)OC(=O)C3OC321 (stereo not drawn) [Compound 1, 11α-hydroxy-7-deacetoxy-7-oxogedunin]	non-toxicities; also recorded: no cytotoxicity						92.1 ± 1.5%	83.4% and 83.4 ± 3.1%	61.8% and 61.8 ± 1.8%	16.8% and 16.8 ± 0.0%	37.4	> 100	102.4 ± 0.8	101 ± 1.7	102.8 ± 0.6	103 ± 1.8	
[H]/N=C(/NC)NCCC[C@H](N)C(=O)O [L-NMMA, reference compound]							93.0 ± 3.3%	79.3% and 79.3 ± 0.8%	58.2% and 58.2 ± 2.4%	39.9% and 39.9 ± 1.7%	53.7	> 100	103.5 ± 0.5	102 ± 1.5	94.1 ± 1.4	96.5 ± 2.5	
